Columns and labels:
L-SMase = assay: SMase assay of CHO cell homogenate and 16,000-x-g pellet; format: biochemical, Chinese hamster
Procedure: FIGS. 18A-B. Zn^2+-dependency of SMase in a sonicated cell homogenate and 16,000-x-g pellet. CHO cells were grown to 90% confluency in Ham's F-12 media containing 10% HI-FBS and PSG and then washed 3 times with PBS before incubation in serum-free medium containing 0.2% BSA for 24 h. The cells were then washed 3 times in 0.25 M sucrose and the total cell homogenate and the 16,000-x-g cellular subfraction were isolated as described in “Experimental Procedures”. Twelve micrograms of the cell homogenate (Homogenate) and 2.5 μg of the 16,000-x-g pellet (16K-xg Pellet) were assayed for SMase activity in the presence of either 5 mM EDTA (hatched bars) or 0.1 mM ZnCl2 (solid bars) for 1 h at 37° C. at pH 5.0. […]
SMase Assay—As previously described (Schissel et al., 1996), the standard 200-μl assay mixture consisted of up to 40 μl of sample (conditioned media or homogenized cells; see above) and a volume of assay buffer (0.1 M sodium acetate, pH 5.0) to bring the volume to 160 μl. […] The ceramide spots were scraped and directly counted to quantify [^3H]ceramide. Typically, the assay reactions contained approximately 20 μg of cellular homogenate protein and a volume of conditioned media derived from a quantity of cells equivalent to approximately 50 μg of cellular protein.

HUVECs = assay: LDH release from HUVECs; format: cell-based, human; conditions: IL-1β 5 ng/ml, 18 h
Procedure: HUVECs were incubated for 18 h in DMEM, 0.2% BSA alone (Con) or containing human recombinant interleukin-1β (5 ng/ml) (IL1β). Conditioned media from these cells were then assayed for SMase activity (FIG. 25A) and LDH activity (FIG. 25B).
LDH Assay—LDH activity was assayed in medium and cells as reported previously (42) using a kit purchased from Sigma (catalogue #500); the assay measures the unreacted pyruvic acid using a colorometric assay.

[1] = test system: mannose-phosphorylated S-SMase of HUVECs; assay: Binding of HUVEC S-SMase to mannose-phosphate receptor column; format: cell-based, human; conditions: conditioned medium of IL-1β-treated HUVECs; Western blot densitometry
Description: We recently reported that S-SMase is secreted through a Golgi pathway that bypasses the lysosomal pathway of L-SMase. Thus, we considered three general mechanisms to explain how IL-Lβ increases the secretion of SMase: secretion of mannose-phosphorylated SMase during trafficking of the ASM precursor to lysosomes (e.g., due to saturation of the mannose-6-phosphate receptor—cf. Ref. (46)), induction of secretion of intralysosomal SMase (cf. Ref. (47)), or increased trafficking of the ASM precursor protein through the normal Golgi secretory pathway. To begin, we assessed the mannose-phosphorylation state of S-SMase from control and IL-1β-treated HUVECs by passing conditioned media from these cells over a mannose-phosphate receptor column (cf. Ref. (48)). By Western blot analysis quantified by densitometry, only 7.9% of control S-SMase and 4.9% of S-SMase from the cytokine-treated cells bound to the column and could be eluted with mannose-6-phosphate. As a control for this experiment, we have previously shown that the massive secretion of SMase by ASM-transfected CHO cells can be partly explained by secretion of mannose-phosphorylated SMase due to saturation of the mannose-6-phosphate receptor^2; when conditioned medium from these cells was passed over the receptor column, 40.3% bound and could be eluted with mannose-6-phosphate. […]

Row | Compound | effect of exogenous Zn2+ on SMase activity (L-SMase; 16,000-x-g pellet (intact lysosomes), sonicated) | effect of exogenous Zn2+ on SMase activity (L-SMase; sonicated cell homogenate) | increase in LDH release (HUVECs) [%] | S-SMase bound to mannose-phosphate receptor column and eluted with mannose-6-phosphate [1] [%]
1 | [Cl-].[Cl-].[Zn+2] [Zn^2+, ZnCl2] | substantially stimulated | no effect |  | 
2 | IL-1β: human recombinant interleukin-1β |  |  | 60 | 4.9

Reference: patent publication US6613322B2, “Method for treating a subject suffering from conditions associated with an extracellular zinc sphingomyelinase” (The Trustees of Columbia University in the City of New York, priority 1997, dated 2003)
